Reference: PMC10813153, “Development of a Novel Covalently Bonded Conjugate of Caprylic Acid Tripeptide (Isoleucine–Leucine–Aspartic Acid) for Wound-Compatible and Injectable Hydrogel to Accelerate Healing” (Biomolecules, 2024)
“Also recorded” adds a separate entry of the source. Where a SMILES comes first, the peptide text is derived from it. The star is where a group is joined. Palmitoyl = CCCCCCCCCCCCCCCC(=O)*; Myristoyl = CCCCCCCCCCCCCC(=O)*; Lauroyl = CCCCCCCCCCCC(=O)*; Octanoyl = CCCCCCCC(=O)*

Key:
[1] = Hydrogel formation, confirmed by vial inversion method; assay type: physicochemical; settings: for Gelation Time: time after the pH was adjusted to 7.4; for Gelation Feature: conjugate 1.5% w/v in PBS saline, pH 6.5–7.8, dissolved at pH 9 then readjusted, sonication, vial inversion; for Hydrogel stability when shaken by hand: visual, compared with other conjugates; for Concentration at which hydrogel forms in PBS: PBS buffer, remained a solution below, vial inversion test
Description: Lyophilized fatty acid–peptide conjugates were dissolved in phosphate-buffered saline (PBS) at a final concentration of 0.5% (5.0 mg in 1 mL of PBS), 1.5% (15.0 mg in 1 mL of PBS), and 3% (30.0 mg in 1 mL of PBS). The pH of the peptide solutions was increased to 9.0 by adding 0.1 M NaOH to dissolve the compounds and readjusted to pH 2–8 by the drop-wise addition of 0.1 N HCl, followed by sonication. […] The gel formation was confirmed by the vial inversion method, and photographs were taken.

[2] = Gross assessment of toxicity during wound healing test; set-up: species or system C57BL/6J mice; settings: mouse, in vivo
Text: The animal use protocol was authorized and approved by the Institutional Animal Care and Use Committee of Louisiana State University Health Sciences Center, New Orleans, and followed the ARRIVE guidelines. Briefly, full-thickness burn wounds (6 mm diameter) were generated in the dorsal skin on both sides along the midline of C57BL/6J mice (female, 18 months old, Jackson Laboratory, Bar Harbor, ME, USA) at 0 days post burn (dpb), similar to the procedures performed by us and others previously. Each treatment group included four mice. […] We monitored mouse health and behavior, including drinking, foraging, grooming, and eating, and we examined all wounds twice per day to ensure that the hydrogel and dressing stayed in place. Wound healing was assessed as described previously. The wounds were photographed, and their areas were calculated using NIH ImageJ software version 1.54d. […] The livers, kidneys, and spleens were also collected, weighed, and measured for size to obtain a gross assessment of toxicity. […] The epithelial gap—i.e., the distance between the neoepithelium emerging from the edges of the wound area—was measured using OLYMPUS OlyVIA software version 3.4.1 (Build 26606), as described previously but with some modifications.

[3] = Hydrogel formation, confirmed by vial inversion method; assay type: physicochemical; settings: 1.5% w/v in PBS

Compound	Gelation Time ([1]; 1.5% w/v in PBS) [min]	Gelation Feature [1]	further results
CCCCCCCC(=O)N[C@H](C(=O)N[C@H](C(=O)N[C@@H](CC(=O)O)C(N)=O)[C@@H](C)CC)[C@@H](C)CC [Compound 14] (Octanoyl-Ile-Ile-Asp-NH2)	5		
CCCCCCCC(=O)N[C@H](C(=O)N[C@@H](CC(C)C)C(=O)N[C@@H](CC(=O)O)C(=O)O)[C@@H](C)CC [Compound 5] (Octanoyl-Ile-Leu-Asp-OH)		unable to form a hydrogel at all; also recorded: Not gelate	
CCCCCCCC(=O)N[C@H](C(=O)N[C@@H](CC(C)C)C(=O)N[C@@H](CC(=O)O)C(N)=O)[C@@H](C)CC [Compound 2, caprylic acid–isoleucine–leucine–aspartic acid amide conjugate] (Octanoyl-Ile-Leu-Asp-NH2)			Gel stability at pH 2–8 ([1]; 1.5% w/v in PBS, pH 2–8): gelated and stable; also recorded: formed a hydrogel and stayed gelated; Hydrogel stability when shaken by hand [1]: more stable than either (3) or (4); Systematic or local toxicity during the wound healing test [2]: did not show systematic or local toxicity; Gel stability at pH 10 [3]: no gelation
CCCCCCCC(=O)N[C@@H](CC(C)C)C(=O)N[C@H](C(=O)N[C@@H](CC(=O)O)C(N)=O)[C@@H](C)CC [Compound 15] (Octanoyl-Leu-Ile-Asp-NH2)	5		
CCCCCCCC(=O)N[C@H](C(=O)N[C@@H](CC(C)C)C(=O)N[C@@H](CC(=O)O)C(N)=O)C(C)C [Compound 13] (Octanoyl-Val-Leu-Asp-NH2)	6		
CCCCCCCCCCCCCC(=O)N[C@H](C(=O)N[C@@H](CC(C)C)C(=O)N[C@@H](CC(=O)O)C(=O)O)[C@@H](C)CC [Compound 7] (Myristoyl-Ile-Leu-Asp-OH)	10	Hydrogels were formed	Hydrogel stability when shaken by hand [1]: weaker than those formed by Cn acid-ILD-NH2 with the same Cn acid

More lines, main results first:

Gelation Time ([1]; 1.5% w/v in PBS) [min]	Gelation Feature [1]	Compound	further results
2		CCCCCCCC(=O)N[C@H](C(=O)N[C@@H](C)C(=O)N[C@@H](CC(=O)O)C(N)=O)[C@@H](C)CC [Compound 9] (Octanoyl-Ile-Ala-Asp-NH2)	
7	Hydrogels were formed	CCCCCCCCCCCC(=O)N[C@H](C(=O)N[C@@H](CC(C)C)C(=O)N[C@@H](CC(=O)O)C(=O)O)[C@@H](C)CC [Compound 6] (Lauroyl-Ile-Leu-Asp-OH)	Hydrogel stability when shaken by hand [1]: weaker than those formed by Cn acid-ILD-NH2 with the same Cn acid
15	Hydrogels were formed	CCCCCCCCCCCCCCCC(=O)N[C@H](C(=O)N[C@@H](CC(C)C)C(=O)N[C@@H](CC(=O)O)C(=O)O)[C@@H](C)CC [Compound 8] (Palmitoyl-Ile-Leu-Asp-OH)	Hydrogel stability when shaken by hand [1]: weaker than those formed by Cn acid-ILD-NH2 with the same Cn acid
6		CCCCCCCCCCCC(=O)N[C@H](C(=O)N[C@@H](CC(C)C)C(=O)N[C@@H](CC(=O)O)C(N)=O)[C@@H](C)CC [Compound 3] (Lauroyl-Ile-Leu-Asp-NH2)	Concentration at which hydrogel forms in PBS [1]: ≥ 0.25 % (w/v)
10		CCCCCCCCCCCCCCCC(=O)N[C@H](C(=O)N[C@@H](CC(C)C)C(=O)N[C@@H](CC(=O)O)C(N)=O)[C@@H](C)CC [Compound 4] (Palmitoyl-Ile-Leu-Asp-NH2)	Concentration at which hydrogel forms in PBS [1]: ≥ 0.25 % (w/v)
5		CCCCCCCC(=O)N[C@@H](CC(C)C)C(=O)N[C@@H](CC(C)C)C(=O)N[C@@H](CC(=O)O)C(N)=O [Compound 12] (Octanoyl-Leu-Leu-Asp-NH2)	
3		CCCCCCCC(=O)N[C@H](C(=O)N[C@H](C(=O)N[C@@H](CC(=O)O)C(N)=O)C(C)C)[C@@H](C)CC [Compound 10] (Octanoyl-Ile-Val-Asp-NH2)	
3		CCCCCCCC(=O)N[C@@H](C)C(=O)N[C@@H](CC(C)C)C(=O)N[C@@H](CC(=O)O)C(N)=O [Compound 11] (Octanoyl-Ala-Leu-Asp-NH2)	
	did not gelate	CC[C@H](C)[C@H](N)C(=O)N[C@@H](CC(C)C)C(=O)N[C@@H](CC(=O)O)C(N)=O [Compound 1] (H-Ile-Leu-Asp-NH2)	
